Data from patent US5439930A, “Biologically active n-acylprolydipeptides having antiamnestic, antihypoxic and anorexigenic effects” (Russian-American Institute for New Drug Development, priority 1992, dated 1995).
Where a SMILES comes first, the peptide text is derived from it. The star is where a group is joined. Isovaleryl = CC(C)CC(=O)*; Hexanoyl = CCCCCC(=O)*; PhAc = O=C(Cc1ccccc1)*; Bz = O=C(c1ccccc1)*

Columns and labels:
Type in all cases: in vivo
[1] = test system: memory decline evoked by scopolamine in randomly bred male albino rats; assay: Passive avoidance step-through, amnesia by scopolamine
Procedure: (§1) Compounds according to the present invention, including the compounds described in Examples 1-11, were checked for their ability to prevent memory decline evoked by maximal electroshock (MES) or scopolamine in the passive avoidance step-through paradigm (equipment of Laffaette Co., USA). The experiments described herein (Examples 12, 13, 15, and 19) were carried out using randomly bred male albino rats of a weight of approximately 180-220 g. […] Amnesia was produced by transcorneal maximal electroshock immediately after learning or scopolamine (1 mg/kg, subcutaneously) administration 30 min. before learning. The retention was tested 24 hours later by the measurement of latency of the entering of the dark compartment.
(§2) The degree of antiamnestic activity was estimated according to Buttler's modified formula: [formula]
(§3) The higher the magnitude of this indicator the more is the antiamnestic activity.

[2] = test system: memory decline evoked by maximal electroshock (MES) in randomly bred male albino rats; assay: Passive avoidance step-through, amnesia by maximal electroshock (MES); conditions: for Latency (sec.) Amnesia + subst. / AA % (antiamnestic activity, Butler's modified formula) / inhibition in vivo at 0.1 mg/kg: 0.1 mg/kg i.p. 15 min before training; for Latency (sec.) Amnesia + subst.: MES after learning, retention 24 h later; for inhibition in vivo at 0.1 mg/kg: Rattus norvegicus, ip, 24 h, read-out: AA % (antiamnestic activity, Butler's modified formula)
Procedure: as §1, §2, §3

[3] = test system: phenazepam withdrawn male albino rats; assay: Threshold of aggressive behavior during phenazepam withdrawal; conditions: immediately after the last administration of phenazepam (2 mg/kg i.p. daily for 57 days)
Procedure: The influence of Compound I on withdrawal syndrome caused by the interruption of chronic administration of benzodiazepine tranquilizer phenazepam (T. A. Voronina et al., In Fenazepam; A. V. Bogatsky, Ed.; Naukova dumka Publishers: Kiev, 1982; pp. 67-169) was studied in experiments on male albino rats weighing 190-200 g at the beginning and 300-350 g at the end of the experiment.
Phenazepam (2 mg/kg intraperitoneally) or saline (control group of rats) were given once daily for 57 days. The withdrawal syndrome occurred 24-72 hours after the last injection. The withdrawal syndrome in rats consisted in "anxiogenic-like" state aggressiveness and accelerated development of kindled seizures caused by pentylentetrazol. Compound I was administered to the withdrawn rats in doses of 0.5 mg/kg intraperitoneally 15 minutes prior to testing.
The threshold of the aggressive behavior was determined in the experiment on the rats (R. Tedeshi et al., J. Pharmacol. Exp. Ther., 125, 28-34 (1959)). The paired rats were placed on the electrified floor; the strength of the current, which provokes the fighting, was registered.

[4] = Level of active dose for the described nootropic activities; conditions: above-described nootropic activities
Procedure: The compounds of the present invention were assessed for their ability to prevent memory impairment induced by maximal electroshock, or scopolamine administration. Unlike N-acylpyrrolidine compounds of the type described by Tanaka et al., supra, the compounds of the present invention are not believed to inhibit prolyl endopeptidase activity. […] The Compound I prevents mental decline, induced by frontal lobectomy (Example 15), prenatal alcoholization or prenatal hypoxia (Example 16) and aging (Example 17).
In contrast to this, substances in accordance with the present invention exert their effects in a dose between about 0.1-0.5 mg/kg.

[5] = test system: undertraining of the passive avoidance reflex, rats; assay: Passive avoidance with undertraining, different regimes of administration; conditions: 200 mg/kg i.p.
[6] = 0.1 mg/kg 15 min before learning, scopolamine 1 mg/kg s.c.
[7] = 0.1 mg/kg 15 min before learning, scopolamine 1 mg/kg s.c. 30 min before trial
[8] = 200 mg/kg, scopolamine 1 mg/kg s.c.

NC(=O)CNC(=O)[C@@H]1CCCN1C(=O)Cc1ccccc1 [II, N-phenacetyl-L-prolylglycine amide] (PhAc-Pro-Gly-NH2)
Aa (antiamnestic activity) [1, 6]: -9.0
Latency (sec.) Scopolamine + substance [1, 7]: 45.6 s
Latency (sec.) Amnesia + subst. [2]: 56 s
AA % (antiamnestic activity, Butler's modified formula) ([2]; MES amnesia): 27%

CCOC(=O)CCNC(=O)[C@@H]1CCCN1C(=O)Cc1ccccc1 [III, N-phenacetyl-L-prolyl-β-alanine ethyl ester]
Aa (antiamnestic activity) [1, 6]: 23.7
Latency (sec.) Scopolamine + substance [1, 7]: 78.6 s
Latency (sec.) Amnesia + subst. [2]: 56 s
AA % (antiamnestic activity, Butler's modified formula) ([2]; MES amnesia): 29%

NC(=O)CCNC(=O)[C@@H]1CCCN1C(=O)Cc1ccccc1 [IV, N-phenylacetyl-L-prolyl-β-alanine amide]
Aa (antiamnestic activity) [1, 6]: 52.1
Latency (sec.) Scopolamine + substance [1, 7]: 94.9 s
inhibition in vivo at 0.1 mg/kg ([2]; MES amnesia): 52%

CCOC(=O)[C@@H](NC(=O)[C@@H]1CCCN1C(=O)Cc1ccccc1)C(C)C [IX, N-phenylacetyl-L-prolyl-L-valine ethyl ester] (PhAc-Pro-Val-OEt)
inhibition in vivo at 0.1 mg/kg ([2]; MES amnesia): 0.0001%

O=C1CN=C(c2ccccc2Cl)c2cc(Br)ccc2N1 [Phenazepam, reference compound]
Aggression Threshold (mA) [3]: 2.16 ± 0.2 mA

NC(=O)CN1CCCC1=O [Piracetam, N-carbamido-methyl-pyrrolidone-2, reference compound]
Aa (antiamnestic activity) [1, 8]: 39.3
Latency (sec.) Scopolamine + substance [1, 8]: 64.2 s
Level of active dose [4]: 200 to 800 mg/kg
Mnestic activity (Ma), administration 15 min. before retrieval [5]: -15%
Mnestic activity (Ma), administration 15 min. before trial [5]: 20.0%
Mnestic activity (Ma), administration immediately after trial [5]: 1.0%
AA % (antiamnestic activity) ([2]; 200 mg/kg, MES amnesia): 30.5%

CCOC(=O)C[C@H](NC(=O)[C@@H]1CCCN1C(=O)Cc1ccccc1)C(=O)OCC [V, N-phenylacetyl-L-prolyl-L-aspartic acid diethyl ester] (PhAc-Pro-Asp(OEt)-OEt)
Aa (antiamnestic activity) [1, 6]: -10
Latency (sec.) Scopolamine + substance [1, 7]: 48.1 s
inhibition in vivo at 0.1 mg/kg ([2]; MES amnesia): 29.5%

NC(=O)C[C@H](NC(=O)[C@@H]1CCCN1C(=O)Cc1ccccc1)C(N)=O [VI, N-phenylacetyl-L-prolyl-L-asparagine amide] (PhAc-Pro-Asn-NH2)
Aa (antiamnestic activity) [1, 6]: -4.3
Latency (sec.) Scopolamine + substance [1, 7]: 46.3 s
inhibition in vivo at 0.1 mg/kg ([2]; MES amnesia): 26%

CCOC(=O)CNC(=O)[C@@H]1CCCN1C(=O)c1ccccc1 [VII, N-benzoyl-L-prolylglycine ethyl ester] (Bz-Pro-Gly-OEt)
inhibition in vivo at 0.1 mg/kg ([2]; MES amnesia): 37%

CCOC(=O)CNC(=O)[C@@H]1CCCN1C(=O)CC(C)C [VIII, N-isovaleryl-L-prolylglycine ethyl ester] (Isovaleryl-Pro-Gly-OEt)
inhibition in vivo at 0.1 mg/kg ([2]; MES amnesia): 28%

CCOC(=O)[C@@H](NC(=O)[C@@H]1CCCN1C(=O)c1ccccc1)C(C)C [X, N-benzoyl-L-prolyl-L-valine ethyl ester] (Bz-Pro-Val-OEt)
inhibition in vivo at 0.1 mg/kg ([2]; MES amnesia): 38%

CCOC(=O)CCNC(=O)[C@@H]1CCCN1C(=O)c1ccccc1 [XI, N-benzoyl-L-prolyl-β-alanine ethyl ester]
inhibition in vivo at 0.1 mg/kg ([2]; MES amnesia): 21.9%

NC(=O)CCNC(=O)[C@@H]1CCCN1C(=O)c1ccccc1 [XII, N-benzoyl-L-prolyl-β-alanine amide]
inhibition in vivo at 0.1 mg/kg ([2]; MES amnesia): 15.2%

NC(=O)CNC(=O)[C@@H]1CCCN1C(=O)c1ccccc1 [XIII, N-benzoyl-L-prolylglycine amide] (Bz-Pro-Gly-NH2)
inhibition in vivo at 0.1 mg/kg ([2]; MES amnesia): -17.6%

CNC(=O)CNC(=O)[C@@H]1CCCN1C(=O)Cc1ccccc1 [XIV, N-phenylacetyl-L-prolylglycine N-methylamide] (PhAc-Pro-Gly-NHMe)
inhibition in vivo at 0.1 mg/kg ([2]; MES amnesia): -7.6%

COC(=O)CCCNC(=O)[C@@H]1CCCN1C(=O)Cc1ccccc1 [XIX, N-phenylacetyl-L-prolyl-GABA methylester]
Latency (sec.) Amnesia + subst. [2]: 95.8 s
AA % (antiamnestic activity, Butler's modified formula) ([2]; MES amnesia): 45.4%

CN(C)C(=O)CNC(=O)[C@@H]1CCCN1C(=O)Cc1ccccc1 [XV, N-phenylacetyl-L-prolylglycine dimethylamide] (PhAc-Pro-Gly-NMe2)
inhibition in vivo at 0.1 mg/kg ([2]; MES amnesia): 23%

CCOC(=O)CC[C@H](NC(=O)[C@@H]1CCCN1C(=O)Cc1ccccc1)C(=O)OCC [XVI, N-phenylacetyl-L-prolyl-L-glutamic acid diethyl ester] (PhAc-Pro-Glu(OEt)-OEt)
inhibition in vivo at 0.1 mg/kg ([2]; MES amnesia): 58.3%

CC(C)C[C@H](NC(=O)[C@@H]1CCCN1C(=O)Cc1ccccc1)C(N)=O [XVII, N-phenylacetyl-L-prolyl-L-leucine amide] (PhAc-Pro-Leu-NH2)
inhibition in vivo at 0.1 mg/kg ([2]; MES amnesia): 7.9%

O=C(O)CNC(=O)[C@@H]1CCCN1C(=O)Cc1ccccc1 [XVIII, N-phenylacetyl-L-prolylglycine] (PhAc-Pro-Gly-OH)
inhibition in vivo at 0.1 mg/kg ([2]; MES amnesia): 9.8%

CCOC(=O)[C@H](C)NC(=O)[C@@H]1CCCN1C(=O)Cc1ccccc1 [XX, N-phenylacetyl-L-prolyl-L-alanine ethyl ester] (PhAc-Pro-Ala-OEt)
inhibition in vivo at 0.1 mg/kg ([2]; MES amnesia): 10.8%

CCCCCC(=O)N1CCC[C@H]1C(=O)NCC(=O)OCC [XXI, N-caproyl-L-prolylglycine ethyl ester] (Hexanoyl-Pro-Gly-OEt)
inhibition in vivo at 0.1 mg/kg ([2]; MES amnesia): 20.2%

CCOC(=O)CNC(=O)[C@@H]1CCCN1CCCCc1ccccc1 [XXIII, N-phenylbutyl-L-prolyl-glycine ethylester]
inhibition in vivo at 0.1 mg/kg ([2]; MES amnesia): 12.6%
